The subject of one data set is E. coli. The data set is described as follows: Antimicrobial inactivation under consumer LED lamp. The data set is classed as cell-based, Escherichia coli. The note with it: dyed filter paper, 1 h illumination from LED lamp. The method, then: (§1) The antimicrobial efficiency of the dye was confirmed by CFU method using microbes E. coli MG1655 (E. coli Genetic Resources at Yale) and A. baylyi ADP1 (ATCC 33305). […] The microplate was illuminated in the solar simulator for 1 hour. UV-IR radiations were cut off using a combination of KG3 band pass filter (315-750 nm transmittance) and ? c-17 yellow filter (transmittance >485 nm). Similarly, light control samples were prepared by depositing microbial medium over dyed and un-dyed samples by covering microplate with aluminum foil for 1 h at room temperature. After 1 h of illumination or incubation, the microbes were extracted with LB medium (10 g/l tryptone, 5 g/l yeast extract, 5 g/l NaCl) (975 μl) and serial dilutions were made from each extract. The dilutions were then plated on LA agar plates and incubated at 30° C. overnight. The number of colonies grown on the agar plate was counted and CFUs per milliliter were calculated from it.
(§2) The spectrum of light emitted from the lamp prior to the experiments was measured. […] In addition, the power density of the lamp was also measured at different distances. […] The absorptance of phthalocyanine Pc4 and porphyrin ZnPf papers were calculated from reflectance and transmittance measurement of dyed papers using integrating sphere (IS) detector. The absorptance profiles were very similar to the absorbance measurement in solution. […]

In another data set the test system is A. baylyi. The experiment in a line: Antimicrobial inactivation under consumer LED lamp. The data set is classed as cell-based, Acinetobacter baylyi. The note with it: dyed filter paper, 1 h illumination from LED lamp. The method, then:
as §1, with “The microplate was illuminated in the solar simulator for 1 hour.” left out
as §2

Data set [1] can be described thus: Leeching test of dyed paper in PBS buffer. The data set is classed as physicochemical. The method, then:
Stability of the dye Pc4 against was tested with PBS buffer pH 7.2. The absorbance and emission of PBS buffer incubated with dye papers were measured for checking the leeching (FIGS. 9a and b). […] Absorbance and emission of PBS buffer from each vial was measured after 1 h to check the leeching of dyes from papers.

As for `C[n+]1ccc(-c2c3nc(c(-c4cc[n+](C)cc4)c4ccc([nH]4)c(-c4cc[n+](C)cc4)c4nc(c(-c5cc[n+](C)cc5)c5ccc2[nH]5)C=C4)C=C3)cc1.I.I.I.I.[Zn+2]` [ZnPf, Zn(II)tetrakis[methylpyridinium iodide]porphyrin, reference compound], the inactivation of microorganisms result with E. coli and in the data set on A. baylyi was “complete inactivation” throughout. Also, the “absorbance of PBS extract of dyed paper (leeching)” value in data set [1] (28 mg dyed paper in 4 ml PBS pH 7.2, 1 hour, room temperature) is “strong absorption peak at 422 nm”. Further, the “emission of PBS extract of dyed paper (leeching)” value in data set [1] (PBS pH 7.2, excited at 422 nm, after 1 hour of incubation) is “intense emission peak”.

Values taken from patent US10875871B2, “Photosensitizer” (Tampereen Korkeakoulusäätiö sr, priority 2016, dated 2020).
